Results on 2 compounds are retold here after US20230292750A1, “INSECT REPELLENT PATCHES AND TUBULAR ARTICLES” (ACHIEVE EQUINE LLC, priority 2020, published 2023).

The structures appear in SMILES notation.

Data set [1] can be described thus: Tack Test (wooden dowel probe on reservoir layer). More on the design: key: A positive (+) result for tack indicates there was no transfer of the carrier polymer of the reservoir layer to the probe (adhesive failure). Type of data set: physicochemical. As to conditions: repellent 2% in dry carrier, coated on PET tape. As to the method: Samples of 0.75 inch (19 mm) diameter were coated in circular molds onto the PET tape to a dry thickness of approximately 0.020 inch (0.51 mm). The insect repellent was formulated at 2% within the dry carrier. Subsequent to coating, the samples were first allowed to air dry at room temperature for approximately 1 hour, then placed in a heated air convection oven at approximately […] for several hours. Upon removal, samples sat overnight before evaluation. As a measure of tack, the surface of the coated formulation was probed with the flat end of a wooden dowel The wooden dowel was applied under hand pressure to the surface of the reservoir layer for 1 second long in contact. A positive (+) result for tack indicates there was no transfer of the carrier polymer of the reservoir layer to the probe (adhesive failure).

A short description of data set [2]: Adhesion Test (reservoir layer to support film). Type of data set: physicochemical. Particulars: Camie SBR carrier (CAMIE 390B); repellent 2% in dry carrier, coated on PET tape. More on the design: key: A positive (+) result for adhesion indicates the carrier cohesively failed with transfer of polymer carrier material of the reservoir layer to the support film. As to the method: Samples of 0.75 inch (19 mm) diameter were coated in circular molds onto the PET tape to a dry thickness of approximately 0.020 inch (0.51 mm). The insect repellent was formulated at 2% within the dry carrier. Subsequent to coating, the samples were first allowed to air dry at room temperature for approximately 1 hour, then placed in a heated air convection oven at approximately […] for several hours. Upon removal, samples sat overnight before evaluation. A sharpened to a point like a flat wooden dowel (approximately 3 mm diameter) was used to separate the reservoir layer/support film coating interface. The sharpened end of the wooden dowel was applied under hand pressure at the interface in an attempt to separate the reservoir layer from the support film. A positive (+) result for adhesion indicates the carrier cohesively failed with transfer of polymer carrier material of the reservoir layer to the support film.

Setting [3] is: Bostik EVA carrier (comparative).

`CCN(CC)C(=O)c1cccc(C)c1` [Deet, N,N-diethyl-meta-toluamide]: the tack entry in data set [1] (setting [3]) is listed as “+”; in data set [1] (Camie SBR carrier (CAMIE 390B)), “+ +”. The adhesion result in data set [2] is on record as “+ +”.
Consider `CC(C)=CCC/C(C)=C/CO` [Geraniol], for which the tack result in data set [1] (setting [3]) was “+”; in data set [1] (Camie SBR carrier (CAMIE 390B)) it was “+ +”. Also, in data set [2], the adhesion result was “+ +”.
